Experimental data published in patent publication US20240067604A1, “COMBINATIONS OF IRS/STAT3 DUAL MODULATORS AND ANTI PD-1/PD-L1 ANTIBODIES FOR TREATING CANCER” (TYRNOVO LTD., priority 2017, published 2024).

Test system: esophagogastric junction adenocarcinoma patient-derived xenograft (PDX)
Assay: Patient-derived xenograft (PDX) of esophagogastric junction adenocarcinoma in NodScid mice supplemented with PBMCs from the same patient (double autologous)
Assay type: in vivo, NodScid mice (human tumor and PBMCs)
Details: PDX SC in NodScid mice + patient PBMCs; Compound 4 70 mg/kg IV and/or Keytruda 6 mg/kg IP on days 0, 5 and 11; treatment started at ~160 mm^3; sacrificed on day 18
From the text: Patient-derived xenograft (PDX) of esophagogastric junction adenocarcinoma biopsy subcutaneous (SC) implanted into NodScid mice. At the first day of treatment peripheral blood mononuclear cells (PBMCs) from the same patient were intravenous injected to the mice (double autologous).
Fresh human primary esophagogastric junction adenocarcinoma biopsy was subcutaneously (SC) implanted into NSG mice (P0).
Subcutaneous implantation of human primary tumor biopsy into NodScid mice.
The tumor (P3) was extracted from the mice, measured, cut into small pieces of 1-2 mm and transferred into the gentleMACS Tube containing the sterile saline. […] Animals were observed and monitored for any discomfort and immobility day by day.
Isolation of human PBMCs: Human PBMCs were isolated from heparinized venous blood samples of the same esophagus adenocarcinoma patient by density gradient centrifugation method using Ficol Histopaque (Sigma). […] The total cell number and the number of viable cells were evaluated. […] On the day of injection, the cells were thawed, washed twice in order to dilute possible DMSO residues by the addition of PBS and centrifugation (600 g for 10 minutes, RT) and viable cells were counted. […]
The length (l) and the width (w) of the tumors were measured 4-5 times a week and the volumes of the tumors were calculated as follows: v=lw^2/2. […]

In the case of Oc1cc(CNC(=S)/C=C/c2ccc(O)c(O)c2Br)cc(O)c1O [Compound 4], the “Tumor response / tumor progression (tumor volume, FIG. 1)” value is reported as “no response”.
